Experiments:
in vitro [1] = conditions: human, microsomes
in vitro [2] = conditions: mouse, microsomes
in vivo [3] = conditions: rat, iv, 1 mg/kg
in vivo [4] = conditions: rat, po, 10 mg/kg
in vivo [5] = conditions: rat, iv, 1 mg/kg; remark: listed apart in the source
in vivo [6] = conditions: rat, iv, 10 mg/kg
in vivo [7] = conditions: rat, iv, 1 mg/kg; remark: listed apart in the source
in vivo [8] = conditions: rat, iv, 1 mg/kg; remark: listed apart in the source
in vivo [9] = conditions: rat, po, 10 mg/kg; remark: listed apart in the source
in vivo [10] = conditions: rat, po, 10 mg/kg; remark: listed apart in the source
in vivo [11] = conditions: rat, po, 10 mg/kg; remark: listed apart in the source
in vitro [12] = conditions: rat, liver microsomes

| SMILES | remaining at 0.5 h, 1 µM (in vitro [1]) [%] | remaining at 0.5 h, 1 µM (in vitro [2]) [%] | further results |
| --- | --- | --- | --- |
| CC(C)Oc1ccc(C2CC(c3ccc(CN4CCC(C(=O)O)CC4)cc3)=NO2)cc1Cl (stereo not given) | 73.5 | 84.5 | – |
| CC(C)(C)c1ccc(C2CC(c3ccc(CN4CC(C(=O)[O-])C4)cc3)=NO2)cc1.[Na+] (stereo not given) | 93.8 | 96.7 | half-life (in vivo [3]): 2.4 h; half-life (in vivo [4]): 3.1 h; AUC(0-inf) (in vivo [5]): 1160 ng·h/mL; AUC(0-inf) (in vivo [6]): 5190 ng·h/mL; clearance (in vivo [7]): 13.1 mL/min/kg; Vd (in vivo [8]): 2.6 L/kg; Cmax (in vivo [9]): 1070 ng/mL; Tmax (in vivo [10]): 2.3 h; bioavailability (in vivo [11]): 44.9%; remaining at 0.5 h, 1 µM (in vitro [12]): 95.1% |

Further lines, with some results ahead:

| remaining at 0.5 h, 1 µM (in vitro [1]) [%] | remaining at 0.5 h, 1 µM (in vitro [2]) [%] | SMILES | further results |
| --- | --- | --- | --- |
| 98.5 | > 99 | CC(C)Oc1ccc(-n2cc(-c3ccc(CN4CC(C(=O)O)C4)cc3)nn2)cc1Cl | – |
| 23.2 | 19 | COC(=O)C1CN(Cc2ccc(-n3cc(-c4ccc(OC(C)C)c(Cl)c4)nn3)cc2)C1 | – |
| 24.1 | 28.8 | COC(=O)C1CN(Cc2ccc(-c3cn(-c4ccc(OC(C)C)c(Cl)c4)nn3)cc2)C1 | – |

From ChEMBL document CHEMBL5154711, “Discovery of Novel Sphingosine-1-Phosphate-1 Receptor Agonists for the Treatment of Multiple Sclerosis” (J Med Chem, 2022)
